Source: US20140080810A1 (Exelixis, Inc., priority 2010, published 2014)

Each molecule was assayed against PI3Kα H1047R (Homo sapiens, UniProt P42336, H1047R) (assay: PI3K Biochemical Assay). Details: PIP2 used as substrate.
Protocol: (§1) PI3Kα activity is measured as the percent of ATP consumed following the kinase reaction using luciferase-luciferin-coupled chemiluminescence. Reactions were conducted in 384-well white, medium binding microtiter plates (Greiner). Kinase reactions were initiated by combining test compounds, ATP, substrate (PIP2), and kinase in a 20 μL volume in a buffer solution. The standard PI3Kalpha assay buffer is composed 50 mM Tris, pH 7.5, 1 mM EGTA, 10 mM MgCl2, 1 mM DTT and 0.03% CHAPS. The standard assay concentrations for enzyme, ATP, and substrate are 1.5 nM, 1 μM, and 10 μM, respectively. The reaction mixture was incubated at ambient temperature for approximately 2 h. Following the kinase reaction, a 10 μL aliquot of luciferase-luciferin mix (Promega Kinase-Glo) was added and the chemiluminescence signal measured using a Victor2 plate reader (Perkin Elmer). Total ATP consumption was limited to 40-60% and IC50 values of control compounds correlate well with literature references. Substituting PI3Kα with PI3Kβ, PI3Kγ, or PI3Kδ, the inhibitory activity of the compounds for the other isoforms of I3K were measured.

PI3Kα H1047R, sequence (P42336 whole entry H1047R): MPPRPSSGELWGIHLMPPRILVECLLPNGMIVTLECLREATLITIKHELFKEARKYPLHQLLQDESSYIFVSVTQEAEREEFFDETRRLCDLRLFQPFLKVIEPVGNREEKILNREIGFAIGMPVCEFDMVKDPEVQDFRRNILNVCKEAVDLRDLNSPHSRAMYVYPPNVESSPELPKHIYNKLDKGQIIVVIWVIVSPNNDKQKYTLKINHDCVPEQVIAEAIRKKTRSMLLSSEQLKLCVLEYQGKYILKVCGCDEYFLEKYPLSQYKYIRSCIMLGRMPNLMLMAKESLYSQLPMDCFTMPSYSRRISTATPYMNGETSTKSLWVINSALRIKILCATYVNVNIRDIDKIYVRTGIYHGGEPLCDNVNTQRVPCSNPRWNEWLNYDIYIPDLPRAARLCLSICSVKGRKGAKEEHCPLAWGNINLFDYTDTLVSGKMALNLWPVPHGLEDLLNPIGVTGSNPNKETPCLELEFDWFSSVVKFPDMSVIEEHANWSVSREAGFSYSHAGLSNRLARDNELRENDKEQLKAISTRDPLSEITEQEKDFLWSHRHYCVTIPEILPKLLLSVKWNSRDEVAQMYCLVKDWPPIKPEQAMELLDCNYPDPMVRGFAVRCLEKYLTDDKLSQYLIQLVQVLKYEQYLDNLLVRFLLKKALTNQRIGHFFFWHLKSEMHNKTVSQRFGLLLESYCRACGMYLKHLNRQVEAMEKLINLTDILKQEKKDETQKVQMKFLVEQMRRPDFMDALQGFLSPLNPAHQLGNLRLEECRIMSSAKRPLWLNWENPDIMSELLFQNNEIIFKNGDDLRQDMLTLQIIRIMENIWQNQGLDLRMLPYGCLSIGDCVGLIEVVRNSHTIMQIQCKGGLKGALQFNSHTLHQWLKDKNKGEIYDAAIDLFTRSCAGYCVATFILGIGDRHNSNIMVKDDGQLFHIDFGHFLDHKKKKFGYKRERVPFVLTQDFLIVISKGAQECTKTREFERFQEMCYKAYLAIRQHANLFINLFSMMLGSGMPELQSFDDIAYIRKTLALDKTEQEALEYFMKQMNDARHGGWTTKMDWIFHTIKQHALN
PI3Kα H1047R, sequence (P27986 whole entry partner): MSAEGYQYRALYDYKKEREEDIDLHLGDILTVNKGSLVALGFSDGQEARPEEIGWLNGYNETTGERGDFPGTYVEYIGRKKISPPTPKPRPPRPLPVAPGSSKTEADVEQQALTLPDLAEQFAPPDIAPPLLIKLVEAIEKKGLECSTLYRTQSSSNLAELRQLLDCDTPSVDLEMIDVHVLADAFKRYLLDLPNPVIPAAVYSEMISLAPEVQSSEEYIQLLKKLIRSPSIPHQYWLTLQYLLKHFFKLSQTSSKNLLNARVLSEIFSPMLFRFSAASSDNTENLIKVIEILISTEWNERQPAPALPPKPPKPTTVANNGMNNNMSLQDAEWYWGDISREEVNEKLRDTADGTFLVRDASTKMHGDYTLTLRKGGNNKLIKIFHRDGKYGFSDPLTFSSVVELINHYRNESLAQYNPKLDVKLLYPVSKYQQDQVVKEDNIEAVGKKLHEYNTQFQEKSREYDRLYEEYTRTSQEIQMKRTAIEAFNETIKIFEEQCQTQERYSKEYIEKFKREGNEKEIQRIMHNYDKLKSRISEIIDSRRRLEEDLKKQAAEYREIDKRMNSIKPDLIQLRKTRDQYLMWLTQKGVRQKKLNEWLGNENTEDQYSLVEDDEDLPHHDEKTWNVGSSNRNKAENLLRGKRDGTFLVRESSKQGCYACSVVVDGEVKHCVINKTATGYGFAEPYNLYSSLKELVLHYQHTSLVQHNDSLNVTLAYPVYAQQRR

IC50	SMILES
3 nM	Cc1nc2ncc(-c3ccc4c(c3)CN(c3nc(CN(C)C)nc5c3CC(C)(C)CC5)CCO4)cc2[nH]1 [Compound 693]
5 nM	Cc1nc2cc(-c3ccc4c(c3)CN(c3nc(CN(C)C)nc(C)c3C(C)C)CCO4)cnc2[nH]1 [Compound 694]
5 nM	COc1ccc2c(N3CCOc4ccc(-c5cnc6nc(C)[nH]c6c5)cc4C3)nc(CN(C)C)nc2c1 [Compound 696]
7 nM	CCNc1nc2ccc(-c3ccc4c(c3)CN(c3ccnc5cc(F)ccc35)CCO4)cc2[nH]1 [Compound 698]
6 nM	CCNc1nc2ccc(-c3ccc4c(c3)CN(c3ncnc(NCC)c3C)CCO4)cc2[nH]1 [Compound 699]

What follows are molecules tested against PI3Kγ (Homo sapiens, UniProt P48736) (assay: PI3K Biochemical Assay). Details: PIP2 used as substrate.
PI3Kγ, sequence (P48736 whole entry): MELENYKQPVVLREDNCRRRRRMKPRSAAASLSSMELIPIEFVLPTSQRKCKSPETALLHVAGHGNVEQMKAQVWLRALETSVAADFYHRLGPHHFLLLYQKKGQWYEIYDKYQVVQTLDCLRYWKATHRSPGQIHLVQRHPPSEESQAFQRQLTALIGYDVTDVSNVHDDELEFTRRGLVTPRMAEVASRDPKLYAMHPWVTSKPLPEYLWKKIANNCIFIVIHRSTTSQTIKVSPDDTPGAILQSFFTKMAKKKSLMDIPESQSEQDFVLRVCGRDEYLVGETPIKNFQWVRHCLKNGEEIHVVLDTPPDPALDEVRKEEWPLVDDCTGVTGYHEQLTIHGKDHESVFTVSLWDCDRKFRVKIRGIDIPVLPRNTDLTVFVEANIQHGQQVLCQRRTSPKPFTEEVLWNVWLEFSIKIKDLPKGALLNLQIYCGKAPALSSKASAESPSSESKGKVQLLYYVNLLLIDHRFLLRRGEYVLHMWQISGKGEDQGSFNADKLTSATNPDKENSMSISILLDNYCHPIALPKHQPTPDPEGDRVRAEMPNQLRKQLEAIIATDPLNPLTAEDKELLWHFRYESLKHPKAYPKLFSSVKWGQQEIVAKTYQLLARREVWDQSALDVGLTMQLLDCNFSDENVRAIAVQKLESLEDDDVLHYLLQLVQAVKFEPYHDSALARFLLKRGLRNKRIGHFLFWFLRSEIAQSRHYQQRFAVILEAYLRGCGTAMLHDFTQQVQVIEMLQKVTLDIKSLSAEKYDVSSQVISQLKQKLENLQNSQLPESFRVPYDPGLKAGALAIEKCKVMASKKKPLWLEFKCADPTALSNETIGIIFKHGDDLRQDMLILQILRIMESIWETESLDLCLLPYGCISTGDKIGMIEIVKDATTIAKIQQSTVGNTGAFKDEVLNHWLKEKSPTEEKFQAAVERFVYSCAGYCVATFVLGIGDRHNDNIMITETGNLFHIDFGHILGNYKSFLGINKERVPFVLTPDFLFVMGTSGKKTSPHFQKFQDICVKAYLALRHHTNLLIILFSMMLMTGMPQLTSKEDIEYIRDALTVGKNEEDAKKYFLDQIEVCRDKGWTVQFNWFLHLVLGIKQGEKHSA
Protocol: as §1

IC50	SMILES
1120 nM	Cc1nc2ncc(-c3ccc4c(c3)CN(c3nc(CN(C)C)nc5c3CC(C)(C)CC5)CCO4)cc2[nH]1 [Compound 693]
1850 nM	Cc1nc2cc(-c3ccc4c(c3)CN(c3nc(CN(C)C)nc(C)c3C(C)C)CCO4)cnc2[nH]1 [Compound 694]
1800 nM	COc1ccc2c(N3CCOc4ccc(-c5cnc6nc(C)[nH]c6c5)cc4C3)nc(CN(C)C)nc2c1 [Compound 696]
159 nM	CCNc1nc2ccc(-c3ccc4c(c3)CN(c3ccnc5cc(F)ccc35)CCO4)cc2[nH]1 [Compound 698]
158 nM	CCNc1nc2ccc(-c3ccc4c(c3)CN(c3ncnc(NCC)c3C)CCO4)cc2[nH]1 [Compound 699]

Each molecule was assayed against PI3Kδ (Homo sapiens, UniProt O00329) (assay: PI3K Biochemical Assay). Details: PIP2 used as substrate; read-out: PI3K biochemical IC50 values P13Kδ.
PI3Kδ, sequence (O00329 whole entry): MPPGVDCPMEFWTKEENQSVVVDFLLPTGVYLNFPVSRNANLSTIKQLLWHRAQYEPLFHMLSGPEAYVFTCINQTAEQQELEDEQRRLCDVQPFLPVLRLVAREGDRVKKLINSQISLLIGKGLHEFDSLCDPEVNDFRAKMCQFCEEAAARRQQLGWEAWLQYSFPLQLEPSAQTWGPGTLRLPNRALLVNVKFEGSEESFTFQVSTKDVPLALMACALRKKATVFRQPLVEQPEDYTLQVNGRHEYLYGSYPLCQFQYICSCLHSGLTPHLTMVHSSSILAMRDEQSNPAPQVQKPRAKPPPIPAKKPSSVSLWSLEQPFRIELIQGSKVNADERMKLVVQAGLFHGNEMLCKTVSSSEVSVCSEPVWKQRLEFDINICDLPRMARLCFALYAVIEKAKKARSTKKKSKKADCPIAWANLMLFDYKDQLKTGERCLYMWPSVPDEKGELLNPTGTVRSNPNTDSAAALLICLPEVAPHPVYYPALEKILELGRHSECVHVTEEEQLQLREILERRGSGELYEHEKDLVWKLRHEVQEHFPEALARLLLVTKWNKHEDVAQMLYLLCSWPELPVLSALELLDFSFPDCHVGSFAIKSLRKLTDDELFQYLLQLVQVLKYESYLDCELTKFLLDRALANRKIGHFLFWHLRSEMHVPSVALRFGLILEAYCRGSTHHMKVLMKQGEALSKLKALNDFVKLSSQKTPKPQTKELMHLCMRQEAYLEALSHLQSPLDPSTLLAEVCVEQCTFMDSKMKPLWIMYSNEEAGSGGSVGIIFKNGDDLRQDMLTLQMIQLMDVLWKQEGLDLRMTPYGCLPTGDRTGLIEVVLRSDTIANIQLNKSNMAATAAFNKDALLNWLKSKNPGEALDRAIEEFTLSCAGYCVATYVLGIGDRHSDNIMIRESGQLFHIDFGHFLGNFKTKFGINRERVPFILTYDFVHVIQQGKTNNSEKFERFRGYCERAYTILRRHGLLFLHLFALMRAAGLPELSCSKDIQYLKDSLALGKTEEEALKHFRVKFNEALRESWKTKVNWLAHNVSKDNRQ
PI3Kδ, sequence (P27986 whole entry partner): as the sequence (P27986 whole entry partner) above
Protocol: as §1

IC50	SMILES
575 nM	Cc1nc2ncc(-c3ccc4c(c3)CN(c3nc(CN(C)C)nc5c3CC(C)(C)CC5)CCO4)cc2[nH]1 [Compound 693]
831 nM	Cc1nc2cc(-c3ccc4c(c3)CN(c3nc(CN(C)C)nc(C)c3C(C)C)CCO4)cnc2[nH]1 [Compound 694]
149 nM	COc1ccc2c(N3CCOc4ccc(-c5cnc6nc(C)[nH]c6c5)cc4C3)nc(CN(C)C)nc2c1 [Compound 696]
162 nM	CCNc1nc2ccc(-c3ccc4c(c3)CN(c3ccnc5cc(F)ccc35)CCO4)cc2[nH]1 [Compound 698]
440 nM	CCNc1nc2ccc(-c3ccc4c(c3)CN(c3ncnc(NCC)c3C)CCO4)cc2[nH]1 [Compound 699]

Each molecule was assayed against PI3Kβ (Homo sapiens, UniProt P42338) (assay: PI3K Biochemical Assay). Details: PIP2 used as substrate.
PI3Kβ, sequence (P42338 whole entry): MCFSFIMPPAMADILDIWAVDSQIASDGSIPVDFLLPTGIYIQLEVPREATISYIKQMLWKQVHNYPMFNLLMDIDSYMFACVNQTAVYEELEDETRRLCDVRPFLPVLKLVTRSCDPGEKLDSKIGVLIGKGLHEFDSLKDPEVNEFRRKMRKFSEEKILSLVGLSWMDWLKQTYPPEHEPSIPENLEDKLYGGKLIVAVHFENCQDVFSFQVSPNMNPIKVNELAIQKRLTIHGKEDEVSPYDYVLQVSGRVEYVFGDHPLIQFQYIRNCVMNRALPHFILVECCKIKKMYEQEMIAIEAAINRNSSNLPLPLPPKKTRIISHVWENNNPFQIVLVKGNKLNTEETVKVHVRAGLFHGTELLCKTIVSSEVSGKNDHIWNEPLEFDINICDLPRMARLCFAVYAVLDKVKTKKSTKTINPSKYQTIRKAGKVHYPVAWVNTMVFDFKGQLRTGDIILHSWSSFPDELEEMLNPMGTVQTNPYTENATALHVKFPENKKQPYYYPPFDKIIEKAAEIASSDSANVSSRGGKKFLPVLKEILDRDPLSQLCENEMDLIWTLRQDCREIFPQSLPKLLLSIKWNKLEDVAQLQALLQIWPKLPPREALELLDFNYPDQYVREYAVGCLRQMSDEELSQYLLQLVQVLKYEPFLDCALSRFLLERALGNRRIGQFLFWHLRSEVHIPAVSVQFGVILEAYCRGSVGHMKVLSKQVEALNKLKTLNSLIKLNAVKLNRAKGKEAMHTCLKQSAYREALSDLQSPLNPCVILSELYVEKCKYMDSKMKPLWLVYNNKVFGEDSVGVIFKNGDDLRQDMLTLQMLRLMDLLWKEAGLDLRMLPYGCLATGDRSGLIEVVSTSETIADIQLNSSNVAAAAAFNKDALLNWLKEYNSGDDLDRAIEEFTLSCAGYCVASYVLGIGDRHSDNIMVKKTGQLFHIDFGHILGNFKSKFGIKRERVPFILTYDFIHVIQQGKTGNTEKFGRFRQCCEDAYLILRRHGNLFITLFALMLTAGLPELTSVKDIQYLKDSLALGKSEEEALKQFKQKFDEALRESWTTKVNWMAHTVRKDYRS
PI3Kβ, sequence (P27986 whole entry partner): as the sequence (P27986 whole entry partner) above
Protocol: as §1, with “Total ATP consumption was limited to 40-60% and IC50 values of control compounds correlate well with literature references.” left out

IC50	SMILES
> 3000 nM	Cc1nc2ncc(-c3ccc4c(c3)CN(c3nc(CN(C)C)nc5c3CC(C)(C)CC5)CCO4)cc2[nH]1 [Compound 693]
> 3000 nM	Cc1nc2cc(-c3ccc4c(c3)CN(c3nc(CN(C)C)nc(C)c3C(C)C)CCO4)cnc2[nH]1 [Compound 694]
1310 nM	COc1ccc2c(N3CCOc4ccc(-c5cnc6nc(C)[nH]c6c5)cc4C3)nc(CN(C)C)nc2c1 [Compound 696]
1560 nM	CCNc1nc2ccc(-c3ccc4c(c3)CN(c3ccnc5cc(F)ccc35)CCO4)cc2[nH]1 [Compound 698]
1740 nM	CCNc1nc2ccc(-c3ccc4c(c3)CN(c3ncnc(NCC)c3C)CCO4)cc2[nH]1 [Compound 699]

These molecules were tested on pAKT (T308) in HCT 116 cells (PI3Kα H1047R) (assay: pAKT (T308) ELISA Assay). Details: Homo sapiens, IGF1 stimulation, read-out: Cellular pAKT (T308) IC50 PI3KαH1047R HCT 116 IGF1.
Format: cell-based
Protocol: (§2) In another embodiment, the pAKT ELISA Assay was performed by seeding cells onto 96-well plates (Corning, 3904) in their respective growth media at the densities listed in Table 5. Cells were incubated at 37° C., 5% CO2 for 48 h (except MDA-MB-453 cells which were cultured in the absence of CO2). Compounds were serially diluted in DMSO and subsequently diluted in serum-free DMEM. Test compounds were added to cells in serum-free DMEM at a final concentration of 0.3% DMSO and incubated for 3 h. Cells were lysed with 130 μL of ice-cold RIPA lysis buffer (50 mM Tris-HCl, pH 7.5; 0.5% sodium deoxycholic acid; 1% Triton X-100; 0.1% SDS; 150 mM NaCl) with protease and phosphatase inhibitors (1 mM EDTA, 1 mM NaF, 20 mM β-glycerophosphate, 1 mM Na-orthovanadate, Complete-Mini EDTA-free, Roche, 11836170001, and Phosphatase Inhibitor Cocktail I, Sigma, P2850), directly in 96-well plates. Cells were lysed on ice for 60-120 min at 4° C. The supernatants were added directly to capture ELISA plates previously pre-coated with rabbit anti-AKT capture antibody. ELISA assays for pAKT(T308) and total AKT were performed with the pAKT(T308) ELISA kit (Cell Signaling Technology, 7144) and AKT1 ELISA kit (Cell Signaling Technology, 7142). For the pAKT(T308) ELISA, 85 μL of cell lysate was added to each well. For the total AKT1 ELISA, 15 μL of cell lysate and 85 μL of Starting Block buffer (Pierce, 37543) were added to each well. The plates were incubated overnight at 4° C. with gentle shaking, then washed 3 times with 200 μL of TBST (20 mM Tris, pH 7.4; 150 mM NaCl; 0.1% Tween 20) for 30 s each, and incubated for 1 h with 100 μL of detection antibody (mouse anti-pAKT(T308) antibody or mouse anti-AKT1 antibody). After 3 washes with TBST, the plates were incubated with a 1:1000 dilution of a horseradish peroxidase-labeled anti-mouse IgG (Cell Signaling Technology, 7076) in 100 μL of Starting Block buffer for 0.5 h. After 3 washes with TBST, 50 μL of SuperSignal ELISA Femto substrate solution (Thermo Scientific, 37075A) and 50 μL of SuperSignal ELISA enhancer solution mixture (Thermo Scientific, 37075B) were added to each well and the plates were incubated for approximately 2 min and protected from light. The wells were measured for luminescence using a Wallac plate reader at wavelength of 560 nm. After normalization of pAKT signal to total AKT1 signal, IC50 values were determined relative to the DMSO-treated control.

IC50	SMILES
168 nM	Cc1nc2ncc(-c3ccc4c(c3)CN(c3nc(CN(C)C)nc5c3CC(C)(C)CC5)CCO4)cc2[nH]1 [Compound 693]
130 nM	Cc1nc2cc(-c3ccc4c(c3)CN(c3nc(CN(C)C)nc(C)c3C(C)C)CCO4)cnc2[nH]1 [Compound 694]
400 nM	COc1ccc2c(N3CCOc4ccc(-c5cnc6nc(C)[nH]c6c5)cc4C3)nc(CN(C)C)nc2c1 [Compound 696]
462 nM	CCNc1nc2ccc(-c3ccc4c(c3)CN(c3ccnc5cc(F)ccc35)CCO4)cc2[nH]1 [Compound 698]
719 nM	CCNc1nc2ccc(-c3ccc4c(c3)CN(c3ncnc(NCC)c3C)CCO4)cc2[nH]1 [Compound 699]

These molecules were tested on pAKT (T308) in MDA-MB-453 cells (PI3Kα H1047R) (assay: pAKT (T308) ELISA Assay). Details: Homo sapiens, heregulin stimulation, read-out: Cellular pAKT (T308) IC50 PI3KαH1047R MDA-MB-453 hereg.
Format: cell-based
Protocol: as §2

IC50	SMILES
40 nM	Cc1nc2ncc(-c3ccc4c(c3)CN(c3nc(CN(C)C)nc5c3CC(C)(C)CC5)CCO4)cc2[nH]1 [Compound 693]
18 nM	Cc1nc2cc(-c3ccc4c(c3)CN(c3nc(CN(C)C)nc(C)c3C(C)C)CCO4)cnc2[nH]1 [Compound 694]
117 nM	COc1ccc2c(N3CCOc4ccc(-c5cnc6nc(C)[nH]c6c5)cc4C3)nc(CN(C)C)nc2c1 [Compound 696]
118 nM	CCNc1nc2ccc(-c3ccc4c(c3)CN(c3ccnc5cc(F)ccc35)CCO4)cc2[nH]1 [Compound 698]
639 nM	CCNc1nc2ccc(-c3ccc4c(c3)CN(c3ncnc(NCC)c3C)CCO4)cc2[nH]1 [Compound 699]

What follows are molecules tested on pAKT (T308) in SK-BR-3 cells (PI3Kα wt) (assay: pAKT (T308) ELISA Assay). Details: Homo sapiens, heregulin stimulation, read-out: Cellular pAKT (T308) IC50 PI3Kαwt SK-BR-3 hereg.
Format: cell-based
Protocol: as §2

IC50	SMILES
339 nM	Cc1nc2ncc(-c3ccc4c(c3)CN(c3nc(CN(C)C)nc5c3CC(C)(C)CC5)CCO4)cc2[nH]1 [Compound 693]
115 nM	Cc1nc2cc(-c3ccc4c(c3)CN(c3nc(CN(C)C)nc(C)c3C(C)C)CCO4)cnc2[nH]1 [Compound 694]
1240 nM	COc1ccc2c(N3CCOc4ccc(-c5cnc6nc(C)[nH]c6c5)cc4C3)nc(CN(C)C)nc2c1 [Compound 696]
2860 nM	CCNc1nc2ccc(-c3ccc4c(c3)CN(c3ccnc5cc(F)ccc35)CCO4)cc2[nH]1 [Compound 698]
4540 nM	CCNc1nc2ccc(-c3ccc4c(c3)CN(c3ncnc(NCC)c3C)CCO4)cc2[nH]1 [Compound 699]

The molecules below were run on pAKT (T308) in SK-OV-3 cells (PI3Kα H1047R) (assay: pAKT (T308) ELISA Assay). Details: Homo sapiens, IGF1 stimulation, read-out: Cellular pAKT (T308) IC50 PI3KαH1047R SK-OV-3 IGF1.
Format: cell-based
Protocol: as §2

IC50	SMILES
956 nM	COc1ccc2c(N3CCOc4ccc(-c5cnc6nc(C)[nH]c6c5)cc4C3)nc(CN(C)C)nc2c1 [Compound 696]
438 nM	CCNc1nc2ccc(-c3ccc4c(c3)CN(c3ccnc5cc(F)ccc35)CCO4)cc2[nH]1 [Compound 698]
1240 nM	CCNc1nc2ccc(-c3ccc4c(c3)CN(c3ncnc(NCC)c3C)CCO4)cc2[nH]1 [Compound 699]

Each molecule was assayed on pAKT (T308) in T-47D cells (PI3Kα H1047R) (assay: pAKT (T308) ELISA Assay). Details: Homo sapiens, T47D; IGF1 stimulation; read-out: Cellular pAKT (T308) IC50 PI3KαH1047R T-47D IGF1.
Format: cell-based
Protocol: as §2

IC50	SMILES
73 nM	Cc1nc2ncc(-c3ccc4c(c3)CN(c3nc(CN(C)C)nc5c3CC(C)(C)CC5)CCO4)cc2[nH]1 [Compound 693]
102 nM	Cc1nc2cc(-c3ccc4c(c3)CN(c3nc(CN(C)C)nc(C)c3C(C)C)CCO4)cnc2[nH]1 [Compound 694]
213 nM	COc1ccc2c(N3CCOc4ccc(-c5cnc6nc(C)[nH]c6c5)cc4C3)nc(CN(C)C)nc2c1 [Compound 696]
258 nM	CCNc1nc2ccc(-c3ccc4c(c3)CN(c3ccnc5cc(F)ccc35)CCO4)cc2[nH]1 [Compound 698]
207 nM	CCNc1nc2ccc(-c3ccc4c(c3)CN(c3ncnc(NCC)c3C)CCO4)cc2[nH]1 [Compound 699]

Same assay, conditions: Homo sapiens, T47D; IGF1 stimulation; read-out: pAKT (T308) IC50 T-47D PI3Kα H1047R IGF1

IC50	SMILES
73 nM	Cc1nc2ncc(-c3ccc4c(c3)CN(c3nc(CN(C)C)nc5c3CC(C)(C)CC5)CCO4)cc2[nH]1 [Compound 693]
102 nM	Cc1nc2cc(-c3ccc4c(c3)CN(c3nc(CN(C)C)nc(C)c3C(C)C)CCO4)cnc2[nH]1 [Compound 694]
213 nM	COc1ccc2c(N3CCOc4ccc(-c5cnc6nc(C)[nH]c6c5)cc4C3)nc(CN(C)C)nc2c1 [Compound 696]
258 nM	CCNc1nc2ccc(-c3ccc4c(c3)CN(c3ccnc5cc(F)ccc35)CCO4)cc2[nH]1 [Compound 698]
207 nM	CCNc1nc2ccc(-c3ccc4c(c3)CN(c3ncnc(NCC)c3C)CCO4)cc2[nH]1 [Compound 699]
